From patent publication US10828262B2, “Biomembrane, closed structure with biomembrane characteristics or cellular compartment derived from natural sources and/or self-assembly techniques, preparation method and applications thereof” (priority 2017, dated 2020) come the findings set out here.

The test system of data set [1] is human hepatoma cell line BEL-7402. The conditions noted are these: BALB/C nude mouse.
Source text: (§1) • (1) Inoculate human hepatoma cell line BEL-7402 below back skin of BALB/C nude mouse.
The nature of data set [2]: Body weight of tumor model mice. It counts as in vivo, BALB/C nude mouse. As to conditions: BEL-7402 model nude mice.
Source text: as §1
Data set [3] is described as follows: In vivo half-life period of calcitonin after vein injection. The conditions noted are these: rabbit, injection through vein. Further details: species or system new zealand white rabbit.
The mark [4] stands for this setting: 0.2 ml intraperitoneal injection every day, after 10 d.

As for `COc1cccc2c1C(=O)c1c(O)c3c(c(O)c1C2=O)C[C@@](O)(C(=O)CO)C[C@@H]3O[C@H]1C[C@H](N)[C@H](O)[C@H](C)O1` [Adriamycin amycin, adriamycin], in data set [1] (setting [4]), the “Tumor After treatment” value amounted to 50.17 mm^3. In addition, in data set [1] (liver-implanted tumor), the “Tumor Before treatment” value is on record as 42.93 mm^3. The “Weight Before treatment” value in data set [2] turned out to be 20.03 g. The “Weight After treatment” value in data set [2] (setting [4]) stood at 20.1 g.

Take calcitonin [ordinary calcitonin]: in data set [3], the “in vivo half-life period” value was determined as 2 h.
